Laboratory results published in patent US6207709A, “N-substituted-2-amino-4-phenyl-4-oxo-butanoic acid compounds having kynurenine-3-hydroxy base inhibitory activity” (Pharmacia & Upjohn S.p.A., priority 1996, dated 2001).
Values belong to the compound of their own block, whether it stands above or below them.

Columns and labels:
kynurenine-3-hydroxylase = biological target: T1, kynurenine-3-hydroxylase (Rattus norvegicus, UniProt O88867); test: Kynurenine-3-hydroxylase assay in the rat brain (homogenate); type: biochemical; settings: L-kynurenine 50 μM, 60 min incubation, pH 7.5, read-out: IC 50, enzyme inhibition (rat brain)
T1 construct: evaluated in rat brain homogenate; from tissue; host or cells: rat brain homogenate (washed 12000 x g pellet)
T1 sequence (O88867 whole entry): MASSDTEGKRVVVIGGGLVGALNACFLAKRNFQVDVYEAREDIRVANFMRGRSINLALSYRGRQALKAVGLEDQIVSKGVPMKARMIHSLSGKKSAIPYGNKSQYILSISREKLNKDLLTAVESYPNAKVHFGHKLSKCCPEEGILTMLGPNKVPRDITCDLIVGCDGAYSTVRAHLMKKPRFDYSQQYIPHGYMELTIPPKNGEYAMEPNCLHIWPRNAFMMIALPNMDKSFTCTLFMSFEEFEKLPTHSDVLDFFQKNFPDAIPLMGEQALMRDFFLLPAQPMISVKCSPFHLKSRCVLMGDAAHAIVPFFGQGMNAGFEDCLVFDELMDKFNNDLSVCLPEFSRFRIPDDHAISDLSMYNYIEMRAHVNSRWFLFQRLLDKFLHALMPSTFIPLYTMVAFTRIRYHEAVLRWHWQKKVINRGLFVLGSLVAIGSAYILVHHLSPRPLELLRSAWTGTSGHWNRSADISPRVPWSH
Procedure: (A) Kynurenine-3-hydroxylase assay in the rat brain
Brain was homogenized in ice-cold 0.32 M sucrose and centrifuged at 12000×g for 30 min at 4° C. The pellet was washed three times with 0.32 M sucrose by centrifugation and suspended in 0.14 M KCl in 20 mM K-phosphate buffer at pH 7 (1 g tissue in 2 ml buffer).
The reaction mixture contained: 75 μl of suspended homogenate; 100 μl of substrate solution containing 50 mM K-phosphate buffer pH 7.5, 2 mM MgCl2, 0.4 mM NADPH and 50 μM L-kynurenine (final concentration): 25 μl of different concentrations of inhibitor solutions). The reaction was stopped by addition of 200 μl of 1 M HClO4 after 60 min incubation. L-3-hydroxykynurenine formed was quantified by HPLC with coulometric detection at a working voltage of +0.2 V. The column was a 10 cm C18 reversed phase (3 μm. The mobile phase consisted of 950 ml distilled water, 20 ml acetonitrile, 9 ml triethylamine, 5.9 ml phosphoric acid, 100 mg sodium EDTA and 1.5 g heptanesulfonic acid. The flow rate was 1 ml/min.

[1] = test system: ionotropic excitatory aminoacid receptors; settings: preferentially acting at the glycine co-agonist site of the NMDA receptor; cited from earlier work
[2] = test system: N-methyl-D-aspartate (NMDA) receptor; settings: cited from earlier work
neuronal cell cultures = settings: relatively low QUIN concentrations; prolonged period of time or in combination with glutamate; cited from earlier work
[3] = cited from earlier work

Compound: O=C(O)c1cc(=O)c2ccccc2[nH]1 [KYNA, kynurenic acid]
antagonism at ionotropic excitatory aminoacid receptors (in words) [1]: broad spectrum antagonist

Compound: O=C(O)c1cccnc1C(=O)O [QUIN, quinolinic acid]
agonism at NMDA receptor (in words) [2]: highly selective agonist | neurotoxicity in neuronal cell cultures (in words) (neuronal cell cultures): neurotoxic | effect in vivo (in words) [3]: produce convulsions and axon sparing lesions

Next, values leading:

IC50 (kynurenine-3-hydroxylase): 140 nM
Compound: O=C(CC(NC(=O)C(F)(F)F)C(=O)O)c1ccc(Cl)c(Cl)c1 (racemic) [FCE 29256, (R,S)-N-trifluoroacetyl-2-amino-4-oxo-4-(3',4'-dichlorophenyl)butanoic acid]

IC50 (kynurenine-3-hydroxylase): 270 nM
Compound: O=C(CC(NC(=O)C(F)(F)F)C(=O)O)c1ccc(F)c(F)c1 (racemic) [FCE 29434, (R,S)-N-trifluoroacetyl-2-amino-4-oxo-4-(3',4'-difluorophenyl)butanoic acid]

IC50 (kynurenine-3-hydroxylase): 240 nM
Compound: O=C(C[C@H](NC(=O)C(F)(F)F)C(=O)O)c1ccc(Cl)c(Cl)c1 [FCE 29435, (S)-N-trifluoroacetyl-2-amino-4-oxo-4-(3',4'-dichlorophenyl)butanoic acid]
